Results from patent US20210268070A1, “Use of Immunomodulators to Control Infection and Stimulate Healing in Normal and Diabetic Wounds” (priority 2018, published 2021).

B1: Chemokine (C-C motif) ligand 3 (protein, listed as Homo sapiens)
chain: MQVSTAALAVLLCTMALCNQFSASLAADTPTACCFSYTSRQIPQNFIADYFETSSQCSKPGVIFLTKRSRQVCADPSEEWVQKYVSDLELSA
notes: class 1 immunomodulator

Tests used:
USA300 MRSA = assay: Implant model of infection with USA300 MRSA; type: in vivo; conditions: C57B mice, 10^6 CFU USA300, implant model, topical LPS or fMLP vs vancomycin 40 mg/kg i.p., 24 h, FIG. 2C
Description: (§1) The implant model of infection in C57B mice was used for 10^6 PA103 (FIG. 2A) or 10^6 USA300 MRSA (FIG. 2C). The wound model of infection was used for 10^6 PA103 in C57BL mice (FIG. 2B) or diabetic db/db mice (FIG. 2D). Infection was carried out at the time of surgery by adding bacteria directly to the surgical sites. Immunomodulators, namely, LPS (10 ng or 100 ng), fMLP (10 ng or 100 ng), CCL3 (1 μg) were added topically at the surgical sites at the time of surgery & infection. GM-CSF (10 μg/kg), tobramycin (Tob at 3.5 mg/kg), and vancomycin (40 mg/kg) were added systemically by i.p. injection 1 h before surgical implantation and infection. Infection levels were determined 24 h following infection (N>4 animals/group; NS=not significant, * p<0.01, ** p<0.001, ***p<0.0001 One-way ANOVA).
(15A) C57BL/6 mice received 40 mg/kg prophylaxis (Sys) vancomycin (Vanc) or 3.5 mg/kg tobramycin (Tobra) by i.p. injection. (15A) 1 h after antibiotic administration, 106 CFU of USA300 was added to implant after insertion into facia (Implant Model). (15B) 1 h after antibiotic administration, 10^6CFU of USA300 or 106CFU PA103 (Pa) were added full-thickness wounds in of C57BL/6 (Wound Model). Infection levels at implant surgical site (Tissue & Implant) or a distant site (Spleen), or wound tissues were assessed 24 h following infection. (N>4 animals/group, * p<0.01, ***p<0.0001, One-way ANOVA).
(§2) We assessed these immunomodulators for their ability to control wound and/or implant SS's in normal (C57BL/6) or diabetic (db/db) mice. We acknowledge that diabetic individuals are not as immunocompromised as other immunocompromised patient groups. […] All immunomodulators were added locally at the surgical sites at the time of infection, except GM-CSF (10 μg/kg) which was administered systemically by i.p. injection 1 h prior to surgery per its FDA-approved route of delivery. […] CCL3 and GM-CSF are also tested using the implant model of infection. Here, we tested CCL3 and GM-CSF in the wound model of infection in C57B mice.
(§3) Implant surgery and wound surgery and surgical site infection are performed according to the following method. On the day of surgery, all mice are anesthetized by an intraperitoneal injection of a ketamine/xylazine mixture (90 mg/kg ketamine+5 mg/kg xylazine for mice). The back of the animals is shaved using an electric shave and scrubbed with alcohol swabs 3 times, a topical antiseptic solution (Hibiclens; chlorhexidine gluconate) is applied to the skin. The surgical procedures are performed with sterile instruments, sterile surgical gloves, and aseptic techniques as follows. For wound surgical procedure, a sterile biopsy punch (5-7 mm diameter) is used to punch through the full thickness of the back skin below the shoulder blades. […]

P. aeruginosa PA103 = assay: Implant model of infection with PA103; type: in vivo; conditions: C57B mice, 10^6 PA103, topical at surgical site at time of surgery & infection, 10 ng or 100 ng, dose-dependent, 24 h following infection, FIG. 2A
Description: as §1, §2
as §3, with “follows.” for “follows. For wound surgical procedure, a sterile biopsy punch (5-7 mm diameter) is used to punch through the full thickness of the back skin below the shoulder blades.”

[1] = tested on: inflammatory responses (IL-1 β, TNFα); assay: Neutrophilia and inflammatory responses in diabetic wounds; type: in vivo, db/db mice
Text: P. aeruginosa PA103 10^3 N=4; Significance determined as compared to PBS *<0.05, **p<0.01, ***p<0.001.
FIG. 13A illustrates that TLR4 ligand increases antimicrobial defenses in diabetic wounds against P. aeruginosa and FIG. 13B TLR4 ligand stimulates inflammatory responses in diabetic wounds. N=4; Significance determined as compared to PBS *<0.05, **p<0.01, ***p<0.001.
Tissue-Tek O.C.T. (Sakura); Lysing Matrix D (MP Biomedicals); Collagenase (Roche Diagnostics), Hematoxylin and eosin (H&E); DNase 1 (Sigma-Aldrich); Hyluronidase, Streptozotocin (Sigma-Aldrich); Trizol (Invitrogen); CD45 antibody (eBioscience, Inc); Ly6C; Ly6G; CD11b; CD3 (BioLegend); CD68; GAPDH (Sigma-Aldrich). Ly6G and CD68 (Abcam); Primer pairs for GAPDH were from Qiagen. Masson's trichrome stain (Sigma-Aldrich); Picrosirius red (Abcam); Fibronectin (Chemicon International); Insulin slow-release capsules (Linplant; LinShin, Toronto, Canada) CCL3 (R&D Systems) fMLP (Sigma-Aldrich); II-1β ELISA (R&D Systems); TNF-α ELISA (R&D Systems).

Molecule	controlling USA300 MRSA infection, compared with prophylaxis vancomycin (USA300 MRSA)	P. aeruginosa infection levels on both the implants and tissues surrounding implants (P. aeruginosa PA103)	inflammatory responses in diabetic wounds ([1]; compared to PBS, FIG. 13B)	neutrophilia in infected diabetic wounds ([1]; P. aeruginosa PA103 10^3, FIG. 12A)	persistent inflammatory responses (IL-1 β, TNFα) in infected diabetic wounds ([1]; P. aeruginosa PA103 10^3, FIG. 12B, 12C)
CSCC[C@H](NC=O)C(=O)N[C@@H](CC(C)C)C(=O)N[C@@H](Cc1ccccc1)C(=O)O [fMLP, N-Formylmethionyl-leucyl-phenylalanine]	as effective (if not more)	significantly reduced	–	–	–
lipopolysaccharide [LPS]	as effective (if not more)	significantly reduced	stimulates	–	–
B1	–	–	–	does not lead to	does not lead to
